# Results taken from publication PMC9403976, “Elucidating the path to Plasmodium prolyl-tRNA synthetase inhibitors that overcome halofuginone resistance” (Nature Communications, 2022).
# Values joined by “and” are separate entries in the source; they are usually repeats but may differ in a detail not shown here. Identical values can stand only once. Like-named read-outs stand apart in the source and are kept apart here.
# How the values were obtained:
# P. falciparum Dd2-2D4 = experiment: P. falciparum asexual blood stage (ABS) growth assay, SYBR Green, 72 h, wild-type parasites; assay type: cell-based, Plasmodium falciparum; details: wildtype (Dd2-2D4); 10 μM
# PfcProRS = biological target: T1, PfcProRS (Plasmodium falciparum, UniProt Q8I5R7); assay type: binding; details: for dose-response signal (normalized), SI Fig 8: single replicates
# T1 construct: made in house; host or cells: E. coli SoluBL-21
# T1 sequence (Q8I5R7 249-746): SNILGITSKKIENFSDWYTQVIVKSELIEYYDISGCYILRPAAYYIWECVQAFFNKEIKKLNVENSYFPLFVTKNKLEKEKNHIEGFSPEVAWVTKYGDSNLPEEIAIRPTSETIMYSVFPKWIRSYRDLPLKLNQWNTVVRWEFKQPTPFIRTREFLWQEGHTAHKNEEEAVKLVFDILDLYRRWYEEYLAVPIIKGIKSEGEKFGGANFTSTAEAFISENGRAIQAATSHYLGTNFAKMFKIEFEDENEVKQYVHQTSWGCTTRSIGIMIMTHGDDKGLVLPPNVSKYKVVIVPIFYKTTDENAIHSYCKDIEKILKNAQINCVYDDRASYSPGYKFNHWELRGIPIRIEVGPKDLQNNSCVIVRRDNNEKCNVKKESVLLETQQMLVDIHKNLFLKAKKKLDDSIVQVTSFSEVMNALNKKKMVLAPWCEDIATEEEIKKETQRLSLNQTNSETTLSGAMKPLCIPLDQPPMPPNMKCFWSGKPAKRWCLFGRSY
# HsProRS = HsProRS (Homo sapiens, UniProt P07814); experiment: TR-FRET ligand displacement assay with tracer MAT379 (CoraFluor-1-Halo and anti-His6 antibody formats); assay type: binding; parameters: made in house; host or cells: E. coli SoluBL-21; details: for TR-FRET dose-response, normalized signal (SI Fig 11): individual replicates
# Sequence of HsProRS (P07814 996-1512): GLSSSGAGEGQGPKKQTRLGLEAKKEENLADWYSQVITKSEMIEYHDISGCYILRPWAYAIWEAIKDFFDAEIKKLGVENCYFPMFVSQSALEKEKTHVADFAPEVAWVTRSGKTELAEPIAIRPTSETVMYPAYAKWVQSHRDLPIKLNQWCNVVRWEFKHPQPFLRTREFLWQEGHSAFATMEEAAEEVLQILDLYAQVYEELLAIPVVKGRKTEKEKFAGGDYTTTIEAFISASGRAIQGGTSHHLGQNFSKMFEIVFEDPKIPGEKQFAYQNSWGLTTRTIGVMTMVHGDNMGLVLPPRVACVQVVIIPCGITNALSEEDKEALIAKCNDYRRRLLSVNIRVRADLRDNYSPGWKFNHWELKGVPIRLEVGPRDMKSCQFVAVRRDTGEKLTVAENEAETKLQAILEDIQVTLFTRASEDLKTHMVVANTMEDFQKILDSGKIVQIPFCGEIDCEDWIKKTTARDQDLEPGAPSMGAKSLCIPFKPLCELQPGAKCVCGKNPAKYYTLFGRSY
smiles,measurement,setting,value
C[C@@H]1CCC[C@H](C)N1C(=O)Nc1nccnc1C(=O)NC1Cc2ccccc2C1 [compound 19],"% signal at 10 μM, wildtype (Dd2-2D4)",P. falciparum Dd2-2D4,67.3%
same,"dose-response signal (normalized), SI Fig 8",PfcProRS; Log[inhibitor] (M) -5.000,3.96E-01 and 1.71E-01 and 2.62E-01
same,"dose-response signal (normalized), SI Fig 8",PfcProRS; Log[inhibitor] (M) -5.301,5.52E-01 and 5.02E-01 and 5.09E-01
same,"dose-response signal (normalized), SI Fig 8",PfcProRS; Log[inhibitor] (M) -5.601,8.00E-01 and 7.91E-01 and 8.42E-01
same,"dose-response signal (normalized), SI Fig 8",PfcProRS; Log[inhibitor] (M) -5.904,7.54E-01 and 9.47E-01 and 8.47E-01
same,"dose-response signal (normalized), SI Fig 8",PfcProRS; Log[inhibitor] (M) -6.208,1.02E+00 and 9.13E-01 and 1.08E+00
same,"dose-response signal (normalized), SI Fig 8",PfcProRS; Log[inhibitor] (M) -6.509,9.59E-01 and 1.03E+00 and 9.76E-01
same,"dose-response signal (normalized), SI Fig 8",PfcProRS; Log[inhibitor] (M) -6.796,1.09E+00 and 1.00E+00 and 1.08E+00
same,"dose-response signal (normalized), SI Fig 8",PfcProRS; Log[inhibitor] (M) -7.108,9.66E-01 and 9.00E-01 and 9.04E-01
same,"dose-response signal (normalized), SI Fig 8",PfcProRS; Log[inhibitor] (M) -7.409,9.53E-01 and 1.01E+00 and 9.35E-01
same,"dose-response signal (normalized), SI Fig 8",PfcProRS; Log[inhibitor] (M) -7.710,1.09E+00 and 9.53E-01 and 1.01E+00
same,"dose-response signal (normalized), SI Fig 8",PfcProRS; Log[inhibitor] (M) -8.000,1.12E+00 and 1.07E+00 and 9.69E-01
same,"dose-response signal (normalized), SI Fig 8",PfcProRS; Log[inhibitor] (M) -8.301,1.02E+00 (2×) and 1.14E+00
same,"dose-response signal (normalized), SI Fig 8",PfcProRS; Log[inhibitor] (M) -8.602,1.07E+00 and 8.94E-01 and 1.04E+00
same,"dose-response signal (normalized), SI Fig 8",PfcProRS; Log[inhibitor] (M) -9.000,1.15E+00 and 8.96E-01 and 9.87E-01
same,"dose-response signal (normalized), SI Fig 8",PfcProRS; Log[inhibitor] (M) -9.301,8.48E-01 and 9.64E-01 and 1.02E+00
same,PfcProRS -- best Kd,"PfcProRS; SI Fig 16a, values on -log scale",5.928
same,IC50,HsProRS,> 10000 nM
same,Kd,"HsProRS; HsProRS (KD [nM]) + 100 μM proline mean, + 100 μM proline",1320 nM
same,"normalized TR-FRET ligand displacement signal, dose-response replicates (SI Fig 6)",HsProRS; Log[inhibitor] (M) -5.000,6.53E-01 and 6.39E-01 and 5.91E-01
same,"TR-FRET dose-response, normalized signal (SI Fig 11)",HsProRS; Log[inhibitor] (M) -5.000,8.15E-01 and 7.82E-01 and 8.24E-01
same,"normalized TR-FRET ligand displacement signal, dose-response replicates (SI Fig 6)",HsProRS; Log[inhibitor] (M) -5.301,8.82E-01 and 7.60E-01 and 7.73E-01
same,"TR-FRET dose-response, normalized signal (SI Fig 11)",HsProRS; Log[inhibitor] (M) -5.301,9.03E-01 and 8.79E-01 and 9.19E-01
same,"normalized TR-FRET ligand displacement signal, dose-response replicates (SI Fig 6)",HsProRS; Log[inhibitor] (M) -5.601,8.80E-01 (2×) and 8.74E-01
same,"TR-FRET dose-response, normalized signal (SI Fig 11)",HsProRS; Log[inhibitor] (M) -5.602,9.30E-01 and 1.01E+00 and 9.11E-01
same,"normalized TR-FRET ligand displacement signal, dose-response replicates (SI Fig 6)",HsProRS; Log[inhibitor] (M) -5.904,9.78E-01 and 8.58E-01 and 8.56E-01
same,"TR-FRET dose-response, normalized signal (SI Fig 11)",HsProRS; Log[inhibitor] (M) -5.904,9.97E-01 and 1.07E+00 and 9.73E-01
same,"TR-FRET dose-response, normalized signal (SI Fig 11)",HsProRS; Log[inhibitor] (M) -6.205,1.07E+00 and 9.89E-01 and 1.03E+00
same,"normalized TR-FRET ligand displacement signal, dose-response replicates (SI Fig 6)",HsProRS; Log[inhibitor] (M) -6.208,1.01E+00 and 9.70E-01 and 9.45E-01
same,"TR-FRET dose-response, normalized signal (SI Fig 11)",HsProRS; Log[inhibitor] (M) -6.506,1.02E+00 and 1.05E+00 and 9.88E-01
same,"normalized TR-FRET ligand displacement signal, dose-response replicates (SI Fig 6)",HsProRS; Log[inhibitor] (M) -6.509,9.25E-01 and 1.05E+00 and 8.66E-01
same,"normalized TR-FRET ligand displacement signal, dose-response replicates (SI Fig 6)",HsProRS; Log[inhibitor] (M) -6.796,1.10E+00 and 9.97E-01 and 1.01E+00
same,"TR-FRET dose-response, normalized signal (SI Fig 11)",HsProRS; Log[inhibitor] (M) -6.796,9.68E-01 and 1.04E+00 and 9.56E-01
same,"TR-FRET dose-response, normalized signal (SI Fig 11)",HsProRS; Log[inhibitor] (M) -7.097,1.08E+00 (2×) and 9.97E-01
same,"normalized TR-FRET ligand displacement signal, dose-response replicates (SI Fig 6)",HsProRS; Log[inhibitor] (M) -7.108,1.04E+00 (2×) and 1.01E+00
same,"TR-FRET dose-response, normalized signal (SI Fig 11)",HsProRS; Log[inhibitor] (M) -7.407,1.09E+00 and 9.94E-01 and 1.12E+00
same,"normalized TR-FRET ligand displacement signal, dose-response replicates (SI Fig 6)",HsProRS; Log[inhibitor] (M) -7.409,9.88E-01 and 9.12E-01 and 1.00E+00
same,"TR-FRET dose-response, normalized signal (SI Fig 11)",HsProRS; Log[inhibitor] (M) -7.708,1.07E+00 and 1.00E+00 and 1.08E+00
same,"normalized TR-FRET ligand displacement signal, dose-response replicates (SI Fig 6)",HsProRS; Log[inhibitor] (M) -7.710,9.99E-01 and 1.02E+00 and 9.53E-01
same,"normalized TR-FRET ligand displacement signal, dose-response replicates (SI Fig 6)",HsProRS; Log[inhibitor] (M) -8.000,9.74E-01 and 8.92E-01 and 8.64E-01
same,"TR-FRET dose-response, normalized signal (SI Fig 11)",HsProRS; Log[inhibitor] (M) -8.018,1.06E+00 and 1.03E+00 and 1.01E+00
same,"normalized TR-FRET ligand displacement signal, dose-response replicates (SI Fig 6)",HsProRS; Log[inhibitor] (M) -8.301,9.68E-01 and 9.13E-01 and 9.38E-01
same,"TR-FRET dose-response, normalized signal (SI Fig 11)",HsProRS; Log[inhibitor] (M) -8.319,9.44E-01 and 9.92E-01 and 9.43E-01
same,"normalized TR-FRET ligand displacement signal, dose-response replicates (SI Fig 6)",HsProRS; Log[inhibitor] (M) -8.602,9.46E-01 and 9.29E-01 and 1.00E+00
same,"TR-FRET dose-response, normalized signal (SI Fig 11)",HsProRS; Log[inhibitor] (M) -8.620,1.03E+00 and 1.01E+00 and 7.25E-01
same,"TR-FRET dose-response, normalized signal (SI Fig 11)",HsProRS; Log[inhibitor] (M) -8.921,1.02E+00 and 9.26E-01 and 9.67E-01
same,"normalized TR-FRET ligand displacement signal, dose-response replicates (SI Fig 6)",HsProRS; Log[inhibitor] (M) -9.000,9.21E-01 and 9.72E-01 and 9.38E-01
same,"TR-FRET dose-response, normalized signal (SI Fig 11)",HsProRS; Log[inhibitor] (M) -9.097,9.79E-01 and 1.10E+00 and 1.04E+00
same,"normalized TR-FRET ligand displacement signal, dose-response replicates (SI Fig 6)",HsProRS; Log[inhibitor] (M) -9.301,8.73E-01 and 8.54E-01 and 9.42E-01
same,HsProRS % signal at 10 μM,"HsProRS; no added proline/ATP (-), 10 μM",80.7%
